Test results from PubChem BioAssay (NCI).
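Interpolation was linear, between the two tested concentrations surrounding the appropriate level; five concentrations were tested over 48 hours in 96-well plates. TGI denotes the concentration required for complete inhibition of growth.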

What was measured:
Experiment in all cases: inhibition of tumour cell growth, NCI panel, 48 h
SK-OV-3 ovarian = system: SK-OV-3 ovarian
HT29 colon = system: HT29 colon
SNB-75 CNS = system: SNB-75 CNS
EKVX NSCLC = system: EKVX NSCLC
OVCAR-3 ovarian = system: OVCAR-3 ovarian
CAKI-1 renal = system: CAKI-1 renal
786-0 renal = system: 786-0 renal
SN12C renal = system: SN12C renal
BT-549 breast = system: BT-549 breast
HCT-116 colon = system: HCT-116 colon
SK-MEL-2 melanoma = system: SK-MEL-2 melanoma
PC-3 prostate = system: PC-3 prostate
NCI-H460 lung = system: NCI-H460 lung
UACC-62 melanoma = system: UACC-62 melanoma
OVCAR-8 ovarian = system: OVCAR-8 ovarian
KM12 colon = system: KM12 colon
TK-10 renal = system: TK-10 renal
HOP-92 NSCLC = system: HOP-92 NSCLC
MDA-MB-231 breast = system: MDA-MB-231 breast
M14 melanoma = system: M14 melanoma
UO-31 renal = system: UO-31 renal
NCI-H23 lung = system: NCI-H23 lung
SNB-19 CNS = system: SNB-19 CNS
MALME-3M melanoma = system: MALME-3M melanoma
U251 CNS = system: U251 CNS
DU-145 prostate = system: DU-145 prostate
T-47D breast = system: T-47D breast
SK-MEL-5 melanoma = system: SK-MEL-5 melanoma
A549 NSCLC = system: A549 NSCLC
A498 renal = system: A498 renal
NCI-H226 lung = system: NCI-H226 lung
SF-295 CNS = system: SF-295 CNS
SF-539 CNS = system: SF-539 CNS
UACC-257 melanoma = system: UACC-257 melanoma
HL-60(TB) leukemia = system: HL-60(TB) leukemia
ACHN renal = system: ACHN renal
SW-620 colon = system: SW-620 colon
IGROV1 ovarian = system: IGROV1 ovarian
MCF7 breast = system: MCF7 breast
RPMI-8226 leukemia = system: RPMI-8226 leukemia
NCI-H522 lung = system: NCI-H522 lung
HCT-15 colon = system: HCT-15 colon
MDA-MB-435 = system: MDA-MB-435
COLO 205 colon = system: COLO 205 colon
SK-MEL-28 melanoma = system: SK-MEL-28 melanoma
HOP-62 NSCLC = system: HOP-62 NSCLC
K-562 leukemia = system: K-562 leukemia
HS 578T breast = system: HS 578T breast
MOLT-4 leukemia = system: MOLT-4 leukemia
NCI/ADR-RES ovarian = system: NCI/ADR-RES ovarian
RXF 393 renal = system: RXF 393 renal
SF-268 CNS = system: SF-268 CNS
OVCAR-5 ovarian = system: OVCAR-5 ovarian
SR leukemia = system: SR leukemia
CCRF-CEM leukemia = system: CCRF-CEM leukemia
HCC-2998 colon = system: HCC-2998 colon
MDA-N = system: MDA-N
OVCAR-4 ovarian = system: OVCAR-4 ovarian
LOX IMVI melanoma = system: LOX IMVI melanoma

SMILES: Cc1cc(N(CCOS(C)(=O)=O)CCOS(C)(=O)=O)ccc1C=Nc1ccc(-c2csc(-c3ccccc3)n2)c(Cl)c1
- TGI (SK-OV-3 ovarian): 31.6 µM
- TGI (HT29 colon): 31.5 µM
- TGI (SNB-75 CNS): 14.1 µM
- TGI (EKVX NSCLC): 29.1 µM
- TGI (OVCAR-3 ovarian): 40.9 µM
- TGI (CAKI-1 renal): 1.32 µM
- TGI (786-0 renal): 17.7 µM
- TGI (SN12C renal): 44 µM
- TGI (BT-549 breast): 73.6 µM
- TGI (HCT-116 colon): 40.5 µM
- TGI (SK-MEL-2 melanoma): 50.5 µM
- TGI (PC-3 prostate): 46.5 µM
- TGI (NCI-H460 lung): 7.01 µM
- TGI (UACC-62 melanoma): 20.6 µM
- TGI (OVCAR-8 ovarian): > 84.2 µM
- TGI (KM12 colon): 27.2 µM
- TGI (TK-10 renal): 46.1 µM
- TGI (HOP-92 NSCLC): 27.6 µM
- TGI (MDA-MB-231 breast): 50.9 µM
- TGI (M14 melanoma): 43.1 µM
- TGI (UO-31 renal): 29.7 µM
- TGI (NCI-H23 lung): 29 µM
- TGI (SNB-19 CNS): > 61.1 µM
- TGI (MALME-3M melanoma): 25 µM
- TGI (U251 CNS): > 64.8 µM
- TGI (DU-145 prostate): 35.6 µM
- TGI (T-47D breast): > 85.2 µM
- TGI (SK-MEL-5 melanoma): 16.2 µM
- TGI (A549 NSCLC): 15.9 µM
- TGI (A498 renal): 4.67 µM
- TGI (NCI-H226 lung): 45.2 µM
- TGI (SF-295 CNS): 29.8 µM
- TGI (SF-539 CNS): 16.8 µM
- TGI (UACC-257 melanoma): 49.3 µM
- TGI (HL-60(TB) leukemia): 19.8 µM
- TGI (ACHN renal): 22.2 µM
- TGI (SW-620 colon): > 64.7 µM
- TGI (IGROV1 ovarian): 32.2 µM
- TGI (MCF7 breast): > 58.9 µM
- TGI (RPMI-8226 leukemia): > 71 µM
- TGI (NCI-H522 lung): 3.02 µM
- TGI (HCT-15 colon): 36.1 µM
- TGI (MDA-MB-435): 38 µM
- TGI (COLO 205 colon): 10.2 µM
- TGI (SK-MEL-28 melanoma): > 62.4 µM
- TGI (HOP-62 NSCLC): 29.3 µM
- TGI (K-562 leukemia): 51 µM
- TGI (HS 578T breast): 49.8 µM
- TGI (MOLT-4 leukemia): 38.7 µM
- TGI (NCI/ADR-RES ovarian): 71.5 µM
- TGI (RXF 393 renal): 7.65 µM
- TGI (SF-268 CNS): 54.8 µM
- TGI (OVCAR-5 ovarian): 55 µM
- TGI (SR leukemia): 17.9 µM
- TGI (CCRF-CEM leukemia): 23.3 µM
- TGI (HCC-2998 colon): 15.8 µM
- TGI (MDA-N): 23.1 µM
- TGI (OVCAR-4 ovarian): 51.3 µM
- TGI (LOX IMVI melanoma): 28.3 µM

SMILES: C[C@]12CC[C@@H]3c4ccc(OC(=O)c5ccccc5)cc4CC[C@H]3[C@@H]1CCC2OC(=O)c1cccc2c(=O)c3ccccc3[nH]c12 (some centres not stated)
- TGI (SK-OV-3 ovarian): 74.2 µM
- TGI (HT29 colon): 20.7 µM
- TGI (SNB-75 CNS): 55.8 µM
- TGI (EKVX NSCLC): 30.4 µM
- TGI (OVCAR-3 ovarian): > 100 µM
- TGI (CAKI-1 renal): 58.9 µM
- TGI (786-0 renal): 31.7 µM
- TGI (SN12C renal): 30.1 µM
- TGI (BT-549 breast): 38 µM
- TGI (HCT-116 colon): 30.5 µM
- TGI (SK-MEL-2 melanoma): 54.3 µM
- TGI (PC-3 prostate): 29.8 µM
- TGI (NCI-H460 lung): 32.2 µM
- TGI (UACC-62 melanoma): 31.3 µM
- TGI (OVCAR-8 ovarian): 35.7 µM
- TGI (KM12 colon): 29.6 µM
- TGI (TK-10 renal): 39.1 µM
- TGI (HOP-92 NSCLC): 34.9 µM
- TGI (MDA-MB-231 breast): 40.8 µM
- TGI (M14 melanoma): 37.3 µM
- TGI (UO-31 renal): 68.6 µM
- TGI (NCI-H23 lung): 48.3 µM
- TGI (SNB-19 CNS): 80.6 µM
- TGI (MALME-3M melanoma): 46.8 µM
- TGI (U251 CNS): 29.9 µM
- TGI (DU-145 prostate): 42.6 µM
- TGI (T-47D breast): 60.2 µM
- TGI (SK-MEL-5 melanoma): 57.9 µM
- TGI (A549 NSCLC): 31.5 µM
- TGI (A498 renal): 64 µM
- TGI (NCI-H226 lung): 39.6 µM
- TGI (SF-295 CNS): 37.5 µM
- TGI (SF-539 CNS): 35.6 µM
- TGI (UACC-257 melanoma): 36.3 µM
- TGI (HL-60(TB) leukemia): > 100 µM
- TGI (ACHN renal): 46.8 µM
- TGI (SW-620 colon): 24.5 µM
- TGI (IGROV1 ovarian): 33.3 µM
- TGI (MCF7 breast): 30.2 µM
- TGI (RPMI-8226 leukemia): > 100 µM
- TGI (NCI-H522 lung): 45.2 µM
- TGI (HCT-15 colon): 29 µM
- TGI (MDA-MB-435): 15.4 µM
- TGI (COLO 205 colon): 33.1 µM
- TGI (SK-MEL-28 melanoma): 30.6 µM
- TGI (HOP-62 NSCLC): 50.2 µM
- TGI (K-562 leukemia): > 100 µM
- TGI (HS 578T breast): 38.5 µM
- TGI (MOLT-4 leukemia): > 100 µM
- TGI (NCI/ADR-RES ovarian): 39.9 µM
- TGI (RXF 393 renal): 44.6 µM
- TGI (SF-268 CNS): 44.9 µM
- TGI (OVCAR-5 ovarian): 46.1 µM
- TGI (SR leukemia): > 100 µM
- TGI (CCRF-CEM leukemia): > 100 µM
- TGI (HCC-2998 colon): 30 µM
- TGI (MDA-N): 27.8 µM
- TGI (OVCAR-4 ovarian): 33.8 µM
- TGI (LOX IMVI melanoma): 31 µM

SMILES: O=S(=O)(O)c1cc(S(=O)(=O)O)c2c(N=Nc3cccc4ccccc34)c(O)ccc2c1
- TGI (SK-OV-3 ovarian): > 100 µM
- TGI (HT29 colon): > 100 µM
- TGI (SNB-75 CNS): > 100 µM
- TGI (EKVX NSCLC): > 100 µM
- TGI (OVCAR-3 ovarian): > 100 µM
- TGI (CAKI-1 renal): > 100 µM
- TGI (786-0 renal): > 100 µM
- TGI (SN12C renal): > 100 µM
- TGI (BT-549 breast): > 100 µM
- TGI (HCT-116 colon): > 100 µM
- TGI (SK-MEL-2 melanoma): > 100 µM
- TGI (PC-3 prostate): > 100 µM
- TGI (NCI-H460 lung): > 100 µM
- TGI (UACC-62 melanoma): > 100 µM
- TGI (OVCAR-8 ovarian): > 100 µM
- TGI (KM12 colon): > 100 µM
- TGI (TK-10 renal): > 100 µM
- TGI (HOP-92 NSCLC): > 100 µM
- TGI (MDA-MB-231 breast): > 100 µM
- TGI (M14 melanoma): > 100 µM
- TGI (UO-31 renal): > 100 µM
- TGI (NCI-H23 lung): > 100 µM
- TGI (SNB-19 CNS): > 100 µM
- TGI (MALME-3M melanoma): > 100 µM
- TGI (U251 CNS): > 100 µM
- TGI (DU-145 prostate): > 100 µM
- TGI (T-47D breast): > 100 µM
- TGI (SK-MEL-5 melanoma): > 100 µM
- TGI (A549 NSCLC): > 100 µM
- TGI (A498 renal): > 100 µM
- TGI (NCI-H226 lung): > 100 µM
- TGI (SF-295 CNS): > 100 µM
- TGI (SF-539 CNS): > 100 µM
- TGI (UACC-257 melanoma): > 100 µM
- TGI (HL-60(TB) leukemia): > 100 µM
- TGI (ACHN renal): > 100 µM
- TGI (SW-620 colon): > 100 µM
- TGI (IGROV1 ovarian): > 100 µM
- TGI (MCF7 breast): > 100 µM
- TGI (RPMI-8226 leukemia): > 100 µM
- TGI (NCI-H522 lung): > 100 µM
- TGI (HCT-15 colon): > 100 µM
- TGI (MDA-MB-435): > 100 µM
- TGI (COLO 205 colon): > 100 µM
- TGI (SK-MEL-28 melanoma): > 100 µM
- TGI (HOP-62 NSCLC): > 100 µM
- TGI (K-562 leukemia): > 100 µM
- TGI (HS 578T breast): > 100 µM
- TGI (MOLT-4 leukemia): > 100 µM
- TGI (NCI/ADR-RES ovarian): > 100 µM
- TGI (RXF 393 renal): > 100 µM
- TGI (SF-268 CNS): > 100 µM
- TGI (OVCAR-5 ovarian): > 100 µM
- TGI (SR leukemia): > 100 µM
- TGI (CCRF-CEM leukemia): > 100 µM
- TGI (HCC-2998 colon): > 100 µM
- TGI (MDA-N): > 100 µM
- TGI (OVCAR-4 ovarian): > 100 µM
- TGI (LOX IMVI melanoma): > 100 µM
